Like-named read-outs stand apart in the source and are kept apart here.
Tested on: PABPC1 PABC
Type: binding, human
Conditions: DMS-BM library, bait PABPC1 PABC, row aa = residue at this position; for DMS-derived PSSM value, position S15 / DMS-derived PSSM value (averaged), position S13 / DMS-derived PSSM value, position S13: S = wild type
[1] = prey ATXN2, peptide TLNPNAKEFNPRSFSQ, K = wild type
[2] = prey ATXN2, peptide KSTLNPNAKEFNPRSF, N = wild type
[3] = prey ATXN2, TLNPNAKEFNPRSF(averaged) over the two overlapping peptides, F = wild type
[4] = prey ATXN2, peptide TLNPNAKEFNPRSFSQ, N = wild type
[5] = prey ATXN2, peptide TLNPNAKEFNPRSFSQ
[6] = prey ATXN2, peptide KSTLNPNAKEFNPRSF, F = wild type
[7] = prey ATXN2, TLNPNAKEFNPRSF(averaged) over the two overlapping peptides
[8] = prey ATXN2, peptide KSTLNPNAKEFNPRSF, L = wild type
[9] = prey ATXN2, TLNPNAKEFNPRSF(averaged) over the two overlapping peptides, N = wild type
[10] = prey ATXN2, peptide KSTLNPNAKEFNPRSF, P = wild type

Substance: TLNPNAKEFNPRSFSQ K7R (TLNPNAREFNPRSFSQ)
- DMS-derived PSSM value, position K7 [1]: 0.00234

Substance: KSTLNPNAKEFNPRSF N7P (KSTLNPPAKEFNPRSF)
- DMS-derived PSSM value, position N7 [2]: 0

Substance: TLNPNAKEFNPRSF(averaged) F14K (TLNPNAKEFNPRSK)
- DMS-derived PSSM value (averaged), position F14 [3]: 0.01179

Substance: KSTLNPNAKEFNPRSF A8G (KSTLNPNGKEFNPRSF)
- DMS-derived PSSM value, position A8 (prey ATXN2, peptide KSTLNPNAKEFNPRSF, A = wild type): 0

Substance: TLNPNAKEFNPRSFSQ R12E (TLNPNAKEFNPESFSQ)
- DMS-derived PSSM value, position R12 (prey ATXN2, peptide TLNPNAKEFNPRSFSQ, R = wild type): 0.01629

Substance: TLNPNAKEFNPRSFSQ N5G (TLNPGAKEFNPRSFSQ)
- DMS-derived PSSM value, position N5 [4]: 0.01384

Substance: TLNPNAKEFNPRSFSQ S15Q (TLNPNAKEFNPRSFQQ)
- DMS-derived PSSM value, position S15 [5]: 0.01622

Substance: KSTLNPNAKEFNPRSF F11G (KSTLNPNAKEGNPRSF)
- DMS-derived PSSM value, position F11 [6]: 0

Substance: TLNPNAKEFNPRSF(averaged) S13T (TLNPNAKEFNPRTF)
- DMS-derived PSSM value (averaged), position S13 [7]: 0.05607

Substance: TLNPNAKEFNPRSF(averaged) R12Q (TLNPNAKEFNPQSF)
- DMS-derived PSSM value (averaged), position R12 (prey ATXN2, TLNPNAKEFNPRSF(averaged) over the two overlapping peptides, R = wild type): 0.05602

Substance: TLNPNAKEFNPRSF(averaged) L2K (TKNPNAKEFNPRSF)
- DMS-derived PSSM value (averaged), position L2 (prey ATXN2, TLNPNAKEFNPRSF(averaged) over the two overlapping peptides, L = wild type): 0.0007818

Substance: KSTLNPNAKEFNPRSF R14I (KSTLNPNAKEFNPISF)
- DMS-derived PSSM value, position R14 (prey ATXN2, peptide KSTLNPNAKEFNPRSF, R = wild type): 0.04837

Substance: TLNPNAKEFNPRSFSQ K7G (TLNPNAGEFNPRSFSQ)
- DMS-derived PSSM value, position K7 [1]: 0.01102

Substance: KSTLNPNAKEFNPRSF K9Y (KSTLNPNAYEFNPRSF)
- DMS-derived PSSM value, position K9 (prey ATXN2, peptide KSTLNPNAKEFNPRSF, K = wild type): 0.02328

Substance: KSTLNPNAKEFNPRSF L4K (KSTKNPNAKEFNPRSF)
- DMS-derived PSSM value, position L4 [8]: 0

Substance: TLNPNAKEFNPRSF(averaged) F14P (TLNPNAKEFNPRSP)
- DMS-derived PSSM value (averaged), position F14 [3]: 0.03538

Substance: TLNPNAKEFNPRSF(averaged) K7N (TLNPNANEFNPRSF)
- DMS-derived PSSM value (averaged), position K7 (prey ATXN2, TLNPNAKEFNPRSF(averaged) over the two overlapping peptides, K = wild type): 0.09977

Substance: TLNPNAKEFNPRSF(averaged) N10V (TLNPNAKEFVPRSF)
- DMS-derived PSSM value (averaged), position N10 [9]: 0.105

Substance: KSTLNPNAKEFNPRSF T3V (KSVLNPNAKEFNPRSF)
- DMS-derived PSSM value, position T3 (prey ATXN2, peptide KSTLNPNAKEFNPRSF, T = wild type): 0.2131

Substance: TLNPNAKEFNPRSFSQ S13T (TLNPNAKEFNPRTFSQ)
- DMS-derived PSSM value, position S13 [5]: 0.105

Substance: TLNPNAKEFNPRSFSQ P4H (TLNHNAKEFNPRSFSQ)
- DMS-derived PSSM value, position P4 (prey ATXN2, peptide TLNPNAKEFNPRSFSQ, P = wild type): 0.0297

Substance: TLNPNAKEFNPRSF(averaged) F9M (TLNPNAKEMNPRSF)
- DMS-derived PSSM value (averaged), position F9 [3]: 0

Substance: KSTLNPNAKEFNPRSF F16W (KSTLNPNAKEFNPRSW)
- DMS-derived PSSM value, position F16 [6]: 0.01686

Substance: TLNPNAKEFNPRSF(averaged) P11T (TLNPNAKEFNTRSF)
- DMS-derived PSSM value (averaged), position P11 (prey ATXN2, TLNPNAKEFNPRSF(averaged) over the two overlapping peptides, P = wild type): 0.141

Substance: KSTLNPNAKEFNPRSF L4D (KSTDNPNAKEFNPRSF)
- DMS-derived PSSM value, position L4 [8]: 0

Substance: TLNPNAKEFNPRSFSQ S15Y (TLNPNAKEFNPRSFYQ)
- DMS-derived PSSM value, position S15 [5]: 0.004758

Substance: TLNPNAKEFNPRSF(averaged) S13V (TLNPNAKEFNPRVF)
- DMS-derived PSSM value (averaged), position S13 [7]: 0.05819

Substance: KSTLNPNAKEFNPRSF L4I (KSTINPNAKEFNPRSF)
- DMS-derived PSSM value, position L4 [8]: 0

Substance: TLNPNAKEFNPRSF(averaged) A6H (TLNPNHKEFNPRSF)
- DMS-derived PSSM value (averaged), position A6 (prey ATXN2, TLNPNAKEFNPRSF(averaged) over the two overlapping peptides, A = wild type): 0

Substance: TLNPNAKEFNPRSFSQ S13N (TLNPNAKEFNPRNFSQ)
- DMS-derived PSSM value, position S13 [5]: 0.07115

Substance: KSTLNPNAKEFNPRSF N5F (KSTLFPNAKEFNPRSF)
- DMS-derived PSSM value, position N5 [2]: 0

Substance: TLNPNAKEFNPRSFSQ N5R (TLNPRAKEFNPRSFSQ)
- DMS-derived PSSM value, position N5 [4]: 0.004201

Substance: TLNPNAKEFNPRSFSQ N5D (TLNPDAKEFNPRSFSQ)
- DMS-derived PSSM value, position N5 [4]: 0.00392

Substance: TLNPNAKEFNPRSF(averaged) N3D (TLDPNAKEFNPRSF)
- DMS-derived PSSM value (averaged), position N3 [9]: 0.0826

Substance: KSTLNPNAKEFNPRSF P13Y (KSTLNPNAKEFNYRSF)
- DMS-derived PSSM value, position P13 [10]: 0.004042

Substance: KSTLNPNAKEFNPRSF P13R (KSTLNPNAKEFNRRSF)
- DMS-derived PSSM value, position P13 [10]: 0

Substance: TLNPNAKEFNPRSF(averaged) E8S (TLNPNAKSFNPRSF)
- DMS-derived PSSM value (averaged), position E8 (prey ATXN2, TLNPNAKEFNPRSF(averaged) over the two overlapping peptides, E = wild type): 0.04903

Substance: TLNPNAKEFNPRSF(averaged) F9V (TLNPNAKEVNPRSF)
- DMS-derived PSSM value (averaged), position F9 [3]: 0.0004395

From paper PMC12102759 (Protein Science : A Publication of the Protein Society, 2025)
